Values quoted from earlier work as cited in US11185594B2, “(Anti-HER2 antibody)-drug conjugate” (DAIICHI SANKYO COMPANY, LIMITED, priority 2014, dated 2021).

Assays:
human tumor = human tumor subcutaneously transplanted mouse model
topoisomerase I = biological target: T1, topoisomerase I (Homo sapiens, UniProt P11387); details: compared with SN-38 and topotecan
T1 sequence (P11387 1-765): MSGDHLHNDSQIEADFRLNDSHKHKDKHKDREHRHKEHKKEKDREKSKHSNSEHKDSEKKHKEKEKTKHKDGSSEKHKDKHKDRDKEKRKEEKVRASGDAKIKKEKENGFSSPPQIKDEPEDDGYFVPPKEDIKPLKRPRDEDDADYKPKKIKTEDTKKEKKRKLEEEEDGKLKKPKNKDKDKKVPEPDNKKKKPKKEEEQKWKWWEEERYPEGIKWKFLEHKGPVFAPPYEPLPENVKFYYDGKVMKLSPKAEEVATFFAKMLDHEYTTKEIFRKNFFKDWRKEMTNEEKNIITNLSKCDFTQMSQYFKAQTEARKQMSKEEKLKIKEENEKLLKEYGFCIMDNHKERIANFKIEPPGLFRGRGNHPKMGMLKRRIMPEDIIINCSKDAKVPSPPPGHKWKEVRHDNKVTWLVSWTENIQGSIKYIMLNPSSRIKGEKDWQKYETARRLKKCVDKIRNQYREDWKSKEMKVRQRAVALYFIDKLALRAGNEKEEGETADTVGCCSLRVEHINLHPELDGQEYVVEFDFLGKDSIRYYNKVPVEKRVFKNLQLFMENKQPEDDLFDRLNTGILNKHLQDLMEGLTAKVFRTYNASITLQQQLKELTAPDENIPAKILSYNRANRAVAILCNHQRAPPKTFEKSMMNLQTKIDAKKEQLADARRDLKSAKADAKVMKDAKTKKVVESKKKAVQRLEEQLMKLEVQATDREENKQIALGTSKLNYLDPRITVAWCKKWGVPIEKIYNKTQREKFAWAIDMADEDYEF

CC[C@@]1(O)C(=O)OCc2c1cc1n(c2=O)Cc2c-1nc1cc(F)c(C)c3c1c2[C@@H](N)CC3 [exatecan, (1S,9S)-1-amino-9-ethyl-5-fluoro-2,3-dihydro-9-hydroxy-4-methyl-1H,12H-benzo[de]pyrano[3′,4′:6,7]indolizino[1,2-b]quinoline-10,13(9H,15H)-dione]
in vitro cytocidal activity (various cancer cells; against various cancer cells): higher in vitro cytocidal activity was confirmed | effect against resistant cancer cells (various cancer cells; cancer cells resistant to SN-38 or the like due to expression of P-glycoprotein): confirmed to have the effect | antitumor effect (human tumor): potent antitumor effect | inhibitory activity on topoisomerase I (topoisomerase I): higher than SN-38
